The test system of one experiment is caspase-3 in HepG2 cells. Kind of experiment: Caspase-3 colorimetric activation assay. The experiment is classed as cell-based, human. The following applies: HepG2, 5 and 10 μM, 24 h. As for the experimental part:
The activity of caspase-3 was determined using a caspase-3 colorimetric assay kit (Sigma Aldrich) according to the manufacturer's protocol. Briefly, HepG2 cells (1×10^6 cells/well) were treated with 5 and 10 μM of 8i and 8k for 24 h. The cells were harvested and lysed by addition of lysis buffer. Cell lysates were mixed with colorimetric substrate (Ac-DEVD-pNA) and incubated at 37° C. in the dark for 4 h. The absorbance was measured at 405 nm in an ELISA reader. Caspase-3 activity was expressed as the change of the activity compared to the control (FIG. 3).

Experiment [1] concerns HepG2, NH/3T3, PC-3, MCF-7 cell lines. Put plainly: MTT assay, summary over the cell line panel. The experiment is classed as cell-based. The conditions noted are these: across tested cell lines. As for the experimental part:
(§1) The human cancer cell lines e.g. HepG2 (hepatocellular carcinoma, ATCC® HB-8065™), PC-3 (human prostate cancer cells, ATCC® CRL-1435™), MCF-7 (breast adenocarcinoma, ATCC® […]), and mouse embryo fibroblasts (NIH/3T3, ATCC® CRL-1658™), used in the present study were obtained from the ATCC (American Type Culture Collection, USA and maintained in RPMI 1640 (Roswell Park Memorial Institute, Merck) with 10% FBS (Merck), supplemented with 1% antibiotic and antimycotic solution (Gibco, USA) at 37° C. in a humidified incubator with 5% CO2. All stock solutions of the compounds were prepared in cell culture grade DMSO (dimethyl sulfoxide) and stored at −20° C. Compounds were diluted in culture media prior to use in experiments. Annexin V-FITC apoptosis detection kits were purchased from Calbiochem. MTT dye was procured from Sigma-Aldrich. All the flow cytometry experiments were performed using a FACScan (Becton Dickinson, Mountain View, Calif.) flow cytometer, equipped with a single 488 nm argon laser.
(§2) Cell viability was assessed by MTT assay, which is based on the reduction of MTT by mitochondrial dehydrogenases of viable cells to form a purple formazan product. Briefly, cells (5-6×10^3/well) were plated in 96 well plates. After incubating overnight, the cells were treated with […] different concentrations (100, 50, 20, 10, 5, 2.5, 1.25 μM) in triplicates with the cationic lipidated cordiarimide and intermediates for 48 h. Subsequently, 10 μL of MTT (10 mg/mL) was added to each well and incubated for 3 h. The MTT formazan formed by viable cells was dissolved in 100 μL of DMSO and shaken for 10 min. The absorbance was measured on an ELISA reader. Each test was repeated at least three times. The concentration of the compound which gives the 50% growth inhibition value corresponding to IC50, was calculated using GraphPad prism 5 software. In the present invention we have screened 26 lipidated cordiarimides and the results are described in table 1.

A further experiment has as its system HepG2 cells. Kind of experiment: Apoptosis, annexin V/PI staining by flow cytometry. In kind it is cell-based, human. The conditions noted are these: HepG2, 24 h. On the procedure:
Quantitation of apoptotic cells by annexin V staining was carried out according to the manufacturer's instructions. Briefly, cells (5×10^5 cells/well) were seeded in 6 well plates and treated with 5 μM of 8h-8k for 24 h. After incubation, cells were washed with PBS and stained with 1.25 μL of annexin V-FITC and 10 μL of media binding reagent and incubated for 20 min. After that 10 μL of PI was added and samples were analyzed using a flow cytometer. Annexin V-FITC was analyzed using excitation and emission settings of 488 nm and 535 nm (FL-1 channel); PI, 488 nm and 610 nm (FL-2 channel). Debris and clumps were gated out using forward and orthogonal light scatter. Each experiment was repeated two times independently. Results are illustrated in FIG. 1 and the percentage of Annexin-V/PI positive cells increased gradually from 20 to 70% after 24 h of treatment (FIG. 1).

Experiment [2] has as its system HepG2 (hepatocellular carcinoma). Kind of experiment: MTT assay for cell viability, HepG2. In kind it is cell-based, human. On the procedure: as §1, §2
The target in the next experiment is T1, ligase IIIβ (Homo sapiens, UniProt P49916).
T1 sequence (P49916 43-949 isoform P49916-2 limits assumed): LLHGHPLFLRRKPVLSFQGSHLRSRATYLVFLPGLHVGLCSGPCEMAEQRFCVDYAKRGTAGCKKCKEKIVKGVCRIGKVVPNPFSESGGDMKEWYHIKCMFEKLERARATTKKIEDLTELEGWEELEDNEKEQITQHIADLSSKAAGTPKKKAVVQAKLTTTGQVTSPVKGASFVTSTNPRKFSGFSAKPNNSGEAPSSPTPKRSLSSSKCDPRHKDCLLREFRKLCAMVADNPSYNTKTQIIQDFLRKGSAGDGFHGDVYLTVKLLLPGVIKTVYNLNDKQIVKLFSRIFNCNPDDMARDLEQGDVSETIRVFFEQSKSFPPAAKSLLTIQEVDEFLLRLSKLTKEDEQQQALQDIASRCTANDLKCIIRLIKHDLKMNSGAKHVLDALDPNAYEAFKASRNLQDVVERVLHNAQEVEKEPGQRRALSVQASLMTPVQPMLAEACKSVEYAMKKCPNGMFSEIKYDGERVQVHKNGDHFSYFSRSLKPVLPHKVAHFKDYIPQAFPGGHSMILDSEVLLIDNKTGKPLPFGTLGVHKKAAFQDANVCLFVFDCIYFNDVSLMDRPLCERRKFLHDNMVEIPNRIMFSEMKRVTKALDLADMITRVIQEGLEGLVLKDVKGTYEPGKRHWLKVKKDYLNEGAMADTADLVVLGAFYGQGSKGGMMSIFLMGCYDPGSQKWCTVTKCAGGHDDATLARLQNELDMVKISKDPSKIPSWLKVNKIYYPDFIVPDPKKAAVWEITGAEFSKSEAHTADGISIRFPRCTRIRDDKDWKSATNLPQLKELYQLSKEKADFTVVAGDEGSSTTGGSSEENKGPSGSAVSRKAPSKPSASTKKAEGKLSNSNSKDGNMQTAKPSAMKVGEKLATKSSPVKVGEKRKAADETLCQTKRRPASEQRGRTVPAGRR
Kind of experiment: Ligation assay, DNA ligase IIIβ. In kind it is biochemical. The text has this: The ligation assay was done strictly following the assay protocol described in Xi Chen et. al, Cancer Res 2008; 68(9):3169-3177. The DNA molecules 52 mer (5′-3′), 28-mer (5′-3′) and 34-mer (5′-3′) were used to construct a double stranded nicked substrate for the ligase enzyme (FIG. 4). The 34-mer oligo was labelled with 32P-AMP to form a substrate for ligase and to form a ligase-AMP intermediate. During ligation, the ligase would transfer the AMP to the nick forming a phosphodiester bond and seal the nick. The ligated DNA molecule would be larger in size and run higher up on a 7% Urea-containing denaturing acrylamide gel. If an inhibitor is added to the reaction mixture prior to the addition of ligase, this would lead to an inhibition of ligation and a corresponding loss of labelled ligated product in the gel. We would then be able to calculate the percentage of inhibition of ligation by estimating the amount of ligated product in the lane with no inhibitor and comparing it with the lanes containing different inhibitor molecules or with the same inhibitor molecule at different concentrations.

Each structure is given as a SMILES string. Entries after “also recorded” stand apart in the source; their conditions may differ. Where only a bound is given, the exact number is not on record here.

Consider `CCCCCCCCCCCC[N+](C)(CCCCCCCCCCCC)CC(=O)NC1CCC(=O)N(CC(=O)c2ccccc2)C1=O` (stereo not shown) [Compound 8k, {[2,6-Dioxo-1-(2-oxo-2-phenyl-ethyl)-piperidin-3-ylcarbamoyl]-methyl}-Didodecyl-methyl-ammonium iodide], for which, in the experiment on caspase-3 in HepG2 cells, the caspase-3 activation entry is reported as “activated the caspase-3 in HepG2 cells dose dependently; also recorded: activated the casepase-3 in HepG2 cells dose dependently”. The “antiproliferative / anticancer activity (in words)” value in experiment [1] is recorded as “selective anti-proliferative activity at lower concentrations”. The “apoptosis induction (in words)” value in the experiment with HepG2 cells is reported as “induced significant amount of apoptosis”. Moreover, the half-maximal inhibitory concentration (IC50) in experiment [2] (48 h) came to 1870 nM; in experiment [2] (Homo sapiens, HepG2, 48 h) it was 1800 nM. In addition, the inhibition at 5 µM on ligase IIIβ (5 μM) is less than 50%. At ligase IIIβ (at concentrations that kill HepG2 cells), the “ligase III inhibition” value came to 30%.
